Values of other authors as cited in PMC9516282, “Low prevalence of influenza A strains with resistance markers in Brazil during 2017–2019 seasons” (Frontiers in Public Health, 2022).

System: PA:E199G
Set-up: method as in PMID 30670144
Settings: virus with PA:E199G substitution

SMILES: COC(=O)OCOc1c2n(ccc1=O)N([C@@H]1c3ccccc3SCc3c1ccc(F)c3F)[C@@H]1COCCN1C2=O [BXM, baloxavir marboxil]
- RI (reduced inhibition) to BXM: 4.5 fold
